In ChEMBL document CHEMBL1201862, “PubChem BioAssay data set” (2004):
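Where inhibition never reached the appropriate level, the endpoint shown equals the highest concentration tested. Otherwise, values were interpolated linearly from a five-concentration, 48-hour dose response in 96-well plates. GI50 marks 50% less growth.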 Calls of active or inactive are those of the source. Rule as the data show it: active = GI50 up to about 1.1 µM and inactive = higher.

Columns and labels:
Assay in all cases: NCI tumour cell line growth inhibition, 48 h
A549 = tested on: A549
CCRF-CEM = tested on: CCRF-CEM
COLO 205 = tested on: COLO 205
EKVX = tested on: EKVX
HL-60 = tested on: HL-60
HT-29 = tested on: HT-29
KM12 = tested on: KM12
NCI-H226 = tested on: NCI-H226
NCI-H460 = tested on: NCI-H460
OVCAR-4 = tested on: OVCAR-4
OVCAR-8 = tested on: OVCAR-8
SF-539 = tested on: SF-539
SR = tested on: SR
TK-10 = tested on: TK-10
UACC-62 = tested on: UACC-62
UO-31 = tested on: UO-31
RPMI-8226 = tested on: RPMI-8226

Measured: GI50

CCOC(=N)CC(=O)Nc1ccc(Cl)cc1
inactive: A549 > 100 µM | CCRF-CEM > 100 µM | COLO 205 > 100 µM | EKVX > 100 µM | HL-60 > 100 µM | HT-29 > 100 µM | KM12 > 100 µM | NCI-H226 > 100 µM | NCI-H460 > 100 µM | OVCAR-4 > 100 µM | OVCAR-8 > 100 µM | SF-539 > 100 µM | SR > 100 µM | TK-10 > 100 µM | UACC-62 > 100 µM | UO-31 > 100 µM

Cc1cc2c(c(N)c1C)C(=O)c1ccccc1C2=O
inactive: A549 26.3 µM | CCRF-CEM > 100 µM | COLO 205 > 100 µM | HL-60 > 100 µM | HT-29 49.5 µM | KM12 11.1 µM | NCI-H460 34.5 µM | OVCAR-4 17.5 µM | OVCAR-8 20 µM | RPMI-8226 52.1 µM | SF-539 12.5 µM | SR > 100 µM | TK-10 37.5 µM | UACC-62 5.12 µM | UO-31 10.6 µM

O=C(Nc1ccc(Cl)cc1C(=O)O)c1ccc([N+](=O)[O-])cc1
inactive: A549 33.7 µM | CCRF-CEM 20.2 µM | COLO 205 18.7 µM | EKVX 29.5 µM | HL-60 22.4 µM | HT-29 18.9 µM | KM12 18.4 µM | NCI-H226 11.2 µM | NCI-H460 18.5 µM | OVCAR-4 18.6 µM | OVCAR-8 26.7 µM | RPMI-8226 26.5 µM | SF-539 14.5 µM | TK-10 31.4 µM | UACC-62 14.5 µM | UO-31 19 µM

Cc1noc(C)c1CCCOC1COc2ccccc2OCCOCCOc2ccccc2OC1
inactive: A549 > 100 µM | COLO 205 > 100 µM | EKVX > 100 µM | HL-60 > 100 µM | HT-29 > 100 µM | KM12 > 100 µM | NCI-H226 > 100 µM | OVCAR-4 > 100 µM | OVCAR-8 > 100 µM | SF-539 > 100 µM | TK-10 > 100 µM | UACC-62 27.5 µM | UO-31 > 100 µM

O=C(O)CCC1CCc2cccc3occ1c23 (stereo not drawn)
inactive: A549 > 100 µM | CCRF-CEM > 100 µM | COLO 205 > 100 µM | EKVX > 100 µM | HL-60 > 100 µM | HT-29 > 100 µM | KM12 > 100 µM | NCI-H226 > 100 µM | NCI-H460 > 100 µM | OVCAR-4 > 100 µM | OVCAR-8 > 100 µM | RPMI-8226 > 100 µM | SF-539 > 100 µM | TK-10 > 100 µM | UACC-62 > 100 µM | UO-31 > 100 µM

CC(C)c1ccc(/C=C(\NC(=O)c2ccccc2)c2nc3ccccc3[nH]2)cc1
inactive: A549 27.9 µM | CCRF-CEM 34.1 µM | COLO 205 35.8 µM | EKVX 34.7 µM | HT-29 33.6 µM | KM12 32.2 µM | NCI-H226 55.8 µM | NCI-H460 59.4 µM | OVCAR-4 30.2 µM | OVCAR-8 32.4 µM | RPMI-8226 20 µM | SF-539 77.1 µM | TK-10 54.5 µM | UACC-62 37.4 µM | UO-31 38.7 µM

COc1ccc(C(=O)N2c3ccccc3N(C)n3cccc3C2CC(=O)O)cc1 (stereo not drawn)
inactive: A549 > 100 µM | CCRF-CEM > 100 µM | COLO 205 > 100 µM | EKVX > 100 µM | HL-60 > 100 µM | HT-29 > 100 µM | KM12 > 100 µM | NCI-H226 > 100 µM | NCI-H460 > 100 µM | OVCAR-4 > 100 µM | OVCAR-8 > 100 µM | RPMI-8226 > 100 µM | SF-539 > 100 µM | TK-10 > 100 µM | UACC-62 > 100 µM | UO-31 > 100 µM

Nc1c(-c2nc3ccccc3s2)[n+]([O-])c2ccccc2[n+]1[O-]
inactive: A549 36.4 µM | CCRF-CEM 42.6 µM | COLO 205 37.1 µM | EKVX 51.6 µM | HL-60 29.9 µM | HT-29 37 µM | KM12 33.2 µM | NCI-H226 54.7 µM | NCI-H460 28.1 µM | OVCAR-4 42.1 µM | OVCAR-8 38.6 µM | RPMI-8226 25.8 µM | SF-539 29.9 µM | TK-10 42.1 µM | UACC-62 33.8 µM | UO-31 21.8 µM

CCOC(=O)CC1=N/C(=N/c2cc(Cl)ccc2Cl)SC1
inactive: A549 > 100 µM | CCRF-CEM 76.9 µM | COLO 205 > 100 µM | EKVX > 100 µM | HL-60 > 100 µM | HT-29 54.1 µM | KM12 > 100 µM | NCI-H226 > 100 µM | NCI-H460 > 100 µM | OVCAR-4 > 100 µM | OVCAR-8 > 100 µM | SF-539 > 100 µM | TK-10 > 100 µM | UACC-62 > 100 µM | UO-31 > 100 µM

CCOC(=O)Nn1c(C)cc(C(=O)OC)c1C
inactive: A549 > 100 µM | CCRF-CEM > 100 µM | COLO 205 > 100 µM | EKVX > 100 µM | HL-60 > 100 µM | HT-29 > 100 µM | KM12 > 100 µM | NCI-H226 > 100 µM | NCI-H460 > 100 µM | OVCAR-8 > 100 µM | RPMI-8226 > 100 µM | SF-539 > 100 µM | TK-10 > 100 µM | UACC-62 > 100 µM | UO-31 > 100 µM

c1ccc(C2C3=C(Nc4ncnn42)c2ccccc2C3)cc1 (stereo not drawn)
inactive: A549 34.5 µM | CCRF-CEM 15.5 µM | COLO 205 11 µM | EKVX 87.5 µM | HL-60 5.07 µM | HT-29 4.3 µM | KM12 4.68 µM | NCI-H460 12.1 µM | OVCAR-4 95.9 µM | OVCAR-8 30.8 µM | RPMI-8226 29.5 µM | SF-539 11.4 µM | TK-10 35 µM | UACC-62 4.99 µM | UO-31 48.2 µM

COc1ccc(/C=C/C(=O)c2c(-c3ccccc3)nn(C)c(=O)c2N2CCCCC2)cc1
inactive: A549 16.8 µM | CCRF-CEM 9.95 µM | COLO 205 16.7 µM | EKVX 11.7 µM | HT-29 14.9 µM | NCI-H460 17.8 µM | OVCAR-8 19.5 µM | RPMI-8226 5.26 µM | SF-539 17.5 µM | TK-10 37.1 µM | UACC-62 15.7 µM | UO-31 13.9 µM

CCc1ccc(/N=C\c2cc(OC)c(OC)c(OC)c2)cc1
inactive: A549 > 100 µM | CCRF-CEM 40.7 µM | EKVX > 100 µM | HT-29 > 100 µM | KM12 > 100 µM | NCI-H460 37.7 µM | OVCAR-4 > 100 µM | OVCAR-8 > 100 µM | RPMI-8226 16.6 µM | SF-539 > 100 µM | TK-10 > 100 µM | UACC-62 > 100 µM | UO-31 > 100 µM
